Laboratory results reported in patent US20220026427A1, “CELL BASED ASSAYS AND KITS FOR ASSESSING SERUM CHOLINERGIC RECEPTOR ACTIVITY” (Centre for Addiction and Mental Health, priority 2017, published 2022).
Where a name gives a salt, the structure may show the parent alone.

How the values were obtained:
[1] = system: cognitively intact healthy participants; conditions: in vivo, iv
Source text: Cambridge Neuropsychological Test Automated Battery (CANTAB-AD):
Two main challenges are often encountered with many of the newer neurocognitive tasks. First is the lack of standardization in administering such tasks. Second is the lack of information on their psychometric properties. The Cambridge Neuropsychological Test Automated Battery (CANTAB) system addresses both of these challenges (www.cambridgecognition.com). The design of the CANTAB is based on well-established neurocognitive experimental paradigms. It was designed initially to provide componential analysis of cognitive functions in the elderly and individuals with dementia. The CANTAB Eclipse consists of 22 tasks that assess neurocognitive processes within a wide range of relatively independent cognitive domains, including visual memory, attention, working memory and problem solving. Each of the tasks is graded, allowing the assessment of patients with varying level of impairment. Increasing the difficulty of a task avoids a ceiling effect. Conversely, decreasing the difficulty of a task avoids a floor effect and allows the distinction between specific and generalized deficits (a concern discussed above). The tasks are automated and therefore testing is given in a standardized manner with a standardized feedback about accuracy and speed. […] Estimates of test-retest reliability and of practice effects are available for many of the CANTAB tasks based on an elderly sample with an age range of 60-80 years. The CANTAB has been used in a variety of clinical populations providing an opportunity to compare findings related to different disorders, including findings examining cognition in late-life bipolar disorder. Finally, the CANTAB tasks are independent of language and culture and can be used in population for whom English is not a primary language^46.
Participants attended the Centre for Addiction and Mental Health on two separate occasions:
Visit 2: Upon arrival at CAMH, participants were administered the CANTAB. An IV line was then set up by a research nurse and the first blood sample was taken. […] The CANTAB was completed once more. […] The qualified investigator or designate was available for the entirety of the study visit.

[2] = molecular target: T1, human or rat M1 muscarinic receptors (Rattus norvegicus, UniProt P08482); assay: Ca2+ mobilization (FluoForte) protocol in CHO cells expressing M1 receptors, pre- and post-carbachol phases; type: cell-based
T1 construct: host or cells: CHO cells (M1WT3), whole cells
T1 sequence (P08482 1-460): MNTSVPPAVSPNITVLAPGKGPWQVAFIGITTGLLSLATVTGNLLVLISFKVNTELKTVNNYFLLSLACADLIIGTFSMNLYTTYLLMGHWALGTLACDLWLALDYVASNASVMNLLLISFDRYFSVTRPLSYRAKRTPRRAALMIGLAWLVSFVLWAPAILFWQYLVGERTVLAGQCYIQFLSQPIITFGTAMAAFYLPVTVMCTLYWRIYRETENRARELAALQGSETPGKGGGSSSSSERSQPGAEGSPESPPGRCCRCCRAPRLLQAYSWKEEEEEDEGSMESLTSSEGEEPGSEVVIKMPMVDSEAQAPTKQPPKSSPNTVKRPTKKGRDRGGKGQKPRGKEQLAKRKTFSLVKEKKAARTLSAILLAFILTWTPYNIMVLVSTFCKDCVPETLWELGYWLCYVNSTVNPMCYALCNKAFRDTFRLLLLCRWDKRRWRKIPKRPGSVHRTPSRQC

CN1[C@@H]2C[C@@H](OC(=O)[C@H](CO)c3ccccc3)C[C@H]1[C@@H]1O[C@@H]12 [scopolamine, Scopolamine Hydrobromide]
blc_pc difference score (Big/little circle, Percent correct) [1]: −0.8 | dms_pc difference score (Delayed matching to sample, Percent correct (all delays)) [1]: −19.3 | dms_pcs difference score (Delayed matching to sample, Percent correct (simultaneous)) [1]: 4.4 | dms_pege difference score (Delayed matching to sample, Prob error given error) [1]: 0.1 | pal_tea6 difference score (Paired associated learning, Total errors (6 shapes, adjusted)) [1]: 9.0 | pal_tea difference score (Paired associated learning, Total errors (adjusted)) [1]: 19.1 | rvp_a difference score (Rapid image visual processing, A′) [1]: −0.1 | soc_mitt5 difference score (Stocking of Cambridge, Mean initial thinking time (5 moves)) [1]: −3055.0 | soc_mstt5 difference score (Stocking of Cambridge, Mean subsequent thinking time (5 moves)) [1]: 5139.3 | soc_psimm difference score (Stocking of Cambridge, Problems solved in minimum moves) [1]: −1.7 | swm_be difference score (Spatial working memory, Between errors) [1]: 20.2 | swm_strat difference score (Spatial working memory, Strategy) [1]: 3.1

CN1[C@@H]2CC[C@H]1C[C@@H](OC(=O)C(CO)c1ccccc1)C2 (stereo partly shown) [Atropine, atropine]
effect of the antagonist alone on Ca2+ mobilization [2]: no effect on their own | effect on the agonist response (serum peak) [2]: completely blocked this agonist response

Clc1ccc2c(c1)N=C(N1CCNCC1)c1ccccc1N2 [NDMC, N-desmethylclozapine]
effect on Ca2+ mobilization in the pre-carbachol phase [2]: stronger effects than CLZ | effect on the carbachol response (post-carbachol phase) [2]: virtually eliminated the carbachol response
